Consider seven molecules from patent US12370209B2, “Methods for the use of 5′-adenosine diphosphate ribose (ADPR)” (Invirsa, Inc., priority 2016, dated 2025).

Series [1] deals with adenovirus serotype 3. The series is described as follows: Plaque inhibition of adenovirus serotype 3 by ADPR and lithium chloride (Example 2). It counts as cell-based, Adenovirus serotype 3 (Ad3).
Series [2] has as its system AsPC1—human pancreatic adenocarcinoma. The series is described as follows: CellTiter-Glo cell viability assay, AsPC1. It counts as cell-based. Background: In ATP-based viability assays light output follows the ATP content of the culture.
In series [3] the test system is H1437—human, lung adenocarcinoma, non-small cell lung cancer. The series is described as follows: CellTiter-Glo cell viability assay, H1437. It counts as cell-based.
Series [4] concerns U87-MG—human, brain glioblastoma. The series is described as follows: CellTiter-Glo cell viability assay, U87-MG. It counts as cell-based.
The subject of series [5] is MV411—human, myelomonocytic leukemia. Kind of series: CellTiter-Glo cell viability assay, MV411. It counts as cell-based.
Series [6] deals with A549 cell monolayers.
Series [7] relates to tumor necrosis factor alpha (TNF-α) mediated cytotoxicity. The conditions noted are these: in vitro, levels as low as; cited from earlier work.
In series [8] the test system is adenovirus serotype 3. Kind of series: Adenovirus plaque inhibition assay in A549 cells (Example 1). It counts as cell-based, Adenovirus serotype 3 (Ad3).
The test system of the next series is Adenovirus 3. Kind of series: Plaque inhibition by dilithium ADPR, Ad3 in A549 cells (Example 5). It counts as cell-based, Adenovirus 3 (Ad3). The conditions noted are these: 4, 2, 1 and 0.5 mg/mL. How it is done:
(§1) Dilithium ADPR, 150 mg powder, was stored in a glass vial (“Sample A”) at 4° C. in the dark until use. On the day of assay, Sample A was solubilized to 200 mg/ml in 750 μL water for irrigation, then further diluted to target concentrations. […] Solubilized Sample A was tested for plaque inhibitory properties against Adenovirus 3 and Adenovirus 5 (Ad3 & Ad5).
(§2) Solubilized Sample A was diluted to 4 mg/mL, 2 mg/mL, 1 mg/mL and 0.5 mg/mL in Virus Growth Media (DMEM, 2% Fetal Bovine Serum (FBS) and antibiotic, antimycotic).
(§3) A549 cells were plated 7×10^4 cells per well in 6-well plates. After 18 hours, growth media was removed and 1 mL of each sample mixtures was added per well. After incubating for one hour at 37° C., approximately 50-75 plaque forming units Ad3 and separately Ad5 were added per well. Virus adsorbed to the cells for two hours and then media was aspirated from the monolayers and replaced with Virus Growth Media containing Sample A dilutions of 0, 0.5, 1.0, 2.0, and 4.0 mg/mL, and agarose.

A further series has as its system Adenovirus 5. The series is described as follows: Plaque inhibition by dilithium ADPR, Ad5 in A549 cells (Example 5). It counts as cell-based, Adenovirus 5 (Ad5). The conditions noted are these: 4, 2, 1 and 0.5 mg/mL. As for the experimental part:
as §1, §2, §3

A further series concerns A549 cells. The series is described as follows: Thinning of the A549 monolayer in the plaque assay (Example 5). It counts as cell-based, human. As for the experimental part:
as §3
Ad3 and Ad5 plaque size and number were reduced by Sample A at 4 mg/mL and 2 mg/mL. […] The thin monolayer made it hard to delineate plaques. Very few plaques were visible as compared to control. […] Mean plaque counts at Sample A concentrations were as follows: • Ad3: 4 mg/mL-29; 2 mg/mL-10; 1 mg/mL-44; 0.5 mg/mL-54; 0 mg/mL-55 • Ad5: 4 mg/mL-7; 2 mg/mL-7; 1 mg/mL-25; 0.5 mg/mL-53; 0 mg/mL-65 Conclusion

Series [9] has as its system A549 (human alveolar adenocarcinoma) cell culture. Kind of series: MTT incorporation in A549 cell culture (Example 8). It counts as cell-based. The conditions noted are these: for Average MTT incorporation as measured by OD560: 48 hours. As for the experimental part: ADPR, sodium Salt, (Sigma A0752), was tested in A549 (human alveolar adenocarcinoma) cell culture to determine its effect on replication. ADPR was evaluated at five concentrations by incubation for 48 hours with A549 cells (previously grown to a monolayer) at 37° C. After incubation, MTT (3-(4,5-dimethylthiaz ol-2-yl)-2,5-diphenyltetrazolium bromide) dye was added to each well and live cells were measured by blue dye incorporation.

The subject of series [10] is A549 cell monolayers. Kind of series: Toxicity score on A549 cell monolayers (Example 1).
In series [11] the test system is A549 cell monolayers. Kind of series: Toxicity score on A549 cell monolayers (Example 2).
In series [12] the test system is Adenovirus serotype 5 (Ad5). Kind of series: Viral keratoconjunctivitis model, modified McDonald-Shadduck scoring (Example 6). It counts as in vivo, Oryctolagus cuniculus (New Zealand White rabbits). From the text: • Species: Oryctolagus cuniculus • Strain: New Zealand White rabbits • Sex: Female • Age: Commensurate with weight • Weight: Approximately 2.5 to 3.0 kilograms at study start • Number: 8 (naïve) • Method of Identification: Ear tag and cage label • Minimum Acclimation: 5 days
• 1. Inoculum—Adenovirus serotype 5 (Ad5) • (a) Physicochemical Characteristics and Composition Description: Virus propagated in A549 cells in DMEM with 8% fetal bovine serum. Cells and supernatant harvested, sonicated, and clarified by low speed centrifugation. Infectious titer by TCID50: 5.0×109 plaque-forming-units (PFU) per mL. • (b) Storage Condition: frozen at −60 to −80° C. • 2. Test Article—Dilithium ADPR • (a) Molecular weight: approximately 571.18 • (b) Storage Condition: Refrigerated at 2-8° C. • 3. Control Vehicle • (a) Composition: 0.31% sodium chloride, 0.1% sodium tetraborate, 1% boric acid, 0.35% polyethylene glycol 300 (PEG-300) in deionized (DI) water • (b) Storage Condition: Refrigerated at 2° C.-8° C. • 4. Test/Control Article Preparation • (a) Ad5 was supplied in a single aliquot for both days of inoculation. Immediately prior to the first viral inoculation on Day −1, the virus was thawed and brought to room temperature. 0.05 mL (50 μL) of the 5.0×10^9 PFU Ad5/mL solution was diluted with 1.5 mL of Dulbecco's Modified Eagle Medium (DMEM) to create a 1.61×10^8 PFU Ad5/mL solution. After the first inoculation on Day −1, the remaining virus solution was stored refrigerated at 2-8° C. until the second inoculation on Day 0. Virus solution was not re-frozen. • (b) Vehicle: 55.8 mg sodium chloride, 18 mg of sodium tetraborate, 180 mg of boric acid, and 63 mg of PEG-300 were weighed out into a vial. 14 mL DI water was added, and vial contents were swirled, vortexed, and/or sonicated if needed until a clear solution is formed. The pH of the solution was tested using pH tester strips and adjusted to 7.0-7.2, if necessary, using sodium hydroxide (NaOH) or additional boric acid. The volume was then brought up to 18 mL with additional DI water to make a 0.31% sodium chloride, 0.1% sodium tetraborate, 1% boric acid, 0.35% PEG-300 solution. The vial contents were sterile filtered through a 0.2 or 0.22 μm filter. • (c) Dilithium ADPR—High Dose: 240 mg of dilithium ADPR was weighed out into a vial. 12 mg of sodium tetraborate, 120 mg of boric acid, and 42 mg of PEG-300 were weighed out into a separate vial. 7 mL DI water was added, and vial contents were swirled, vortexed, and/or sonicated if needed until a clear solution is formed. The solution was transferred to the vial containing dilithium ADPR. The volume was brought up to […] with DI water, and vial contents were swirled, vortexed, and/or sonicated if needed until a clear solution is formed. […]

Series [13] relates to A549 cell monolayers. To be noted: human.
Where [14] appears, read: 0.5%, 1% and 2% topical TID, Day 3 and Day 7 compared to baseline on Day 1, p<0.01.
Setting [15] is: AsPC1, 72 hours treatment, average of two values.
Setting [16] is: H1437, 72 hours treatment, average of two values.
The mark [17] stands for this setting: U87-MG, 72 hours treatment, average of two values.
The mark [18] stands for this setting: MV411, 72 hours treatment, average of two values.

Entries after “also recorded” stand apart in the source; their conditions may differ. Like-named read-outs stand apart in the source and are kept apart here.

In the case of `[Cl-].[Li+]` [Sample L, Lithium Chloride], the Plaque appearance result in the series with adenovirus serotype 3 [1] is given as “much larger; also recorded: very large plaques”. Further, the IC50 was > 3000 µM in [2], > 3000 µM in series [3], > 3 mM in [4] and > 6000 µM in series [5]. Besides, the “Toxicity Scores (T value)” value with A549 cell monolayers [6] is recorded as “T = 0”.
As to `Nc1ncnc2c1ncn2[C@@H]1O[C@H](COP(=O)(O)OP(=O)(O)OC[C@H]2OC(O)[C@H](O)[C@@H]2O)[C@@H](O)[C@H]1O` (some centres unmarked) [ADPR, 5′-adenosine diphosphate ribose], the “ADPR level with measurable inhibition of TNF-α mediated cytotoxicity” value in series [7] is reported as 5 mg/L.
With “Adenosine 5′-diphosphoribose Sodium Salt [Compound A]”, the “Plaque size as compared to control” value in the series with adenovirus serotype 3 [8] (Compound A at 2000 and 6000 μg/ml) is given as “reduced”; with adenovirus serotype 3 [1] (Sample A at 0.44, 1.33 and 4.0 mM), “reduced”. Also, the “Plaque size and number” value with Adenovirus 3 and with Adenovirus 5 was “reduced” throughout. Further, the “Monolayer compared to cell control wells” value with A549 cells (1 mg/mL and 0.5 mg/mL) is “slight thinning”. Further, the “Monolayer compared to control wells” value in the series on A549 cells (4 and 2 mg/mL) is “moderate thinning”. Also, the “Average MTT incorporation as measured by OD560” value was 0.62±0.08 in series [9] (1.5 mg/mL); 0.61±0.09 in [9] (3 mg/mL); 0.72±0.04 in [9] (6 mg/mL); 0.69±0.01 in series [9] (12 mg/mL); 0.55±0.02 in [9] (24 mg/mL). Also, the “Effect on MTT incorporation” value is “mild reduction” in [9] (at 24 mg/mL) and “did not reduce” in series [9] (up to 12 mg/mL (equal to 21 mM)). For the same molecule, the “Toxicity Scores (T value)” value in the series on A549 cell monolayers [10] (Compound A 2000 μg/ml), in the series with A549 cell monolayers [10] (Compound A 6000 μg/ml), with A549 cell monolayers [11] (Sample A 0.44 mM), in the series on A549 cell monolayers [11] (Sample A 1.33 mM) and with A549 cell monolayers [11] (Sample A 4.0 mM) was “T = 0” each time.
With Dilithium ADPR, the “Composite modified McDonald-Shadduck score (total of all sub scores)” value in series [12] (setting [14]) was “significantly improved; also recorded: significant improvement”. For the same molecule, the Subscore conjunctival congestion result in series [12] (setting [14]) was “improvement that was statistically significant”. For the same molecule, the “Subscore surface area of corneal involvement” value in series [12] (0.5%, 1% and 2% topical TID, Day 3 and Day 7 compared to baseline on Day 1, p<0.05) was “improvement that was statistically significant”. The “Reduction in the composite score” value in series [12] (all doses (0.5%, 1.0% and 2.0%), by Day 7) is > 80%. The IC50 in series [2] (setting [15]) was determined as 570 µM; in series [3] (setting [16]), 531 µM; in [4] (setting [17]), 1.56 mM; in [5] (setting [18]), 323 µM.
Take `CCc1c2c(nc3ccc(O)cc13)-c1cc3c(c(=O)n1C2)COC(=O)[C@]3(O)CC` [SN38]: the IC50 in series [2] (setting [15]) was determined as 1.5 µM; in [3] (setting [16]), 0.2 µM; in [4] (setting [17]) it was 0.0012 mM; in series [5] (setting [18]), 1.17 µM.
Consider `NC(=O)c1cccnc1` [Compound N, Nicotinamide], for which, in the series with adenovirus serotype 3 [8] (600 μg/ml nicotinamide alone), the Plaque appearance entry is listed as “much larger”. For the same molecule, the “Plaque Counts” value in the series with adenovirus serotype 3 [8] (Compound N 6000 μg/ml, 0 μg/ml Compound A, Ad3, A549) is recorded as “Toxic”. Besides, the entries for the “Toxicity Scores (T value)” value in the series with A549 cell monolayers [13] (60 μg/ml), with A549 cell monolayers [13] (600 μg/ml) and with A549 cell monolayers [13] (6000 μg/ml) were “T = 0”, “T = 2” and “T = 3”, respectively.
For the molecule `Nc1ccn(C[C@@H](CO)OCP(=O)(O)O)c(=O)n1` [Cidofovir], the “Plaque Counts” value with adenovirus serotype 3 [8] (20 μM Cidofovir) turned out to be 39. Besides, the values for the Plaque appearance entry with adenovirus serotype 3 [8] (100 μM Cidofovir), with adenovirus serotype 3 [1] (3 μM Cidofovir) and with adenovirus serotype 3 [1] (33 μM Cidofovir) were “pinpoint”, “small plaques” and “Pinpoint plaques”, respectively. In the series on adenovirus serotype 3 [8] (cidofovir, as concentrations were increased (20, 100 μM)), the “Plaque size and number” value is “decreased”.

Broadly, the IC50 is the concentration at which inhibition is half-maximal.
